Source: article PMC4505687, “5-HT3 Receptor Brain-Type B-Subunits are Differentially Expressed in Heterologous Systems” (ACS Chemical Neuroscience, 2015)
Like-named read-outs stand apart in the source and are kept apart here. Marks after values point to notes of the source that are not given here. One block for each compound: values may come before it.

Tests used:
[1] = biological target: T1, 5-HT3A receptors (Homo sapiens, UniProt P46098); assay: Fluorescent membrane potential dye (FlexStation) in transfected HEK293 cells; format: cell-based; settings: Hill slope, 5-HT3A receptors in HEK293 cells, mean ± SEM
T1 construct: expressed in transfected cells; host or cells: Xenopus laevis oocytes (cRNA from pGEMHE) or HEK293 cells (pcDNA3.1)
T1 sequence (P46098 24-478): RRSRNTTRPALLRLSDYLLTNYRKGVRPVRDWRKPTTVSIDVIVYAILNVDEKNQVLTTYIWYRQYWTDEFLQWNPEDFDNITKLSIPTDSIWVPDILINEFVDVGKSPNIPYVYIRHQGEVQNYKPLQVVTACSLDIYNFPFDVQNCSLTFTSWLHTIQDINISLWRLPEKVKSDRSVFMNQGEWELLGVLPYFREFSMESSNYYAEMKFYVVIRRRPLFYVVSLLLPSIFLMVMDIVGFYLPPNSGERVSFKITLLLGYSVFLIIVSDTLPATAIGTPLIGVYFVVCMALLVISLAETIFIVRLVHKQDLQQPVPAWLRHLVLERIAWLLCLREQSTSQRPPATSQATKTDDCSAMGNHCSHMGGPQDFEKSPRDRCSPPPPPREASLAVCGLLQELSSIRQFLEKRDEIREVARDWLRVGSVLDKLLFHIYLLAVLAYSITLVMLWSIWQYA
Procedure: (§1) Human embryonic kidney (HEK) 293 cells were maintained on 90 mm tissue culture plates at 37 °C and 7% CO2 in a humidified atmosphere. They were cultured in DMEM:F12 with GlutaMAX I media (Dulbecco’s modified Eagle’s Medium/Nutrient Mix F12 (1:1), Invitrogen, Paisley, U.K.) containing 10% fetal calf serum. Cells in 90 mm dishes were transfected using polyethylenimine (PEI). Then 30 μL of PEI (1 mg/mL), 4 μL of cDNA (1 mg/mL) and 1 mL of DMEM were incubated for 10 min at room temperature, added dropwise to a 80–90% confluent plate, and incubated for 2–3 days. For Flexstation studies, cells were transferred to 96-well plates and allowed to adhere overnight before use.
(§2) cDNA was cloned into pGEMHE for oocyte expression, and pcDNA3.1 (Invitrogen, Paisley, U.K.) for expression in HEK 293 cells. Mutagenesis (Figure 1) was performed using QuikChange (Agilent Technologies Inc., Santa Clara, CA). cRNA was in vitro transcribed from linearized pGEMHE cDNA template using the mMessage mMachine T7 Transcription kit (Ambion, Austin, TX). 5-HT3A was linearized with SphI and 5-HT3B cDNA with NheI. Stage V and VI oocytes were injected with 50 nL of ∼400 ng μL^–1 cRNA, and currents were recorded 1–4 days postinjection. […] This was as previously described.[22] […] The cells were incubated at 37 °C for 45 min, and then fluorescence was measured in a FlexStation (Molecular Devices) at 2 s intervals for 200 s. […] Analysis and curve fitting was performed using Prism (GraphPad Software, San Diego, CA, www.graphpad.com).

[2] = biological target: T2, 5-HT3ABr1 receptors (Homo sapiens, UniProt O95264+P46098); assay: as above; format: cell-based; settings: Hill slope, 5-HT3ABr1 receptors in HEK293 cells, mean ± SEM
T2 sequence (P46098 24-478): T1 sequence (P46098 24-478)
T2 sequence (O95264 1-430 isoform O95264-2): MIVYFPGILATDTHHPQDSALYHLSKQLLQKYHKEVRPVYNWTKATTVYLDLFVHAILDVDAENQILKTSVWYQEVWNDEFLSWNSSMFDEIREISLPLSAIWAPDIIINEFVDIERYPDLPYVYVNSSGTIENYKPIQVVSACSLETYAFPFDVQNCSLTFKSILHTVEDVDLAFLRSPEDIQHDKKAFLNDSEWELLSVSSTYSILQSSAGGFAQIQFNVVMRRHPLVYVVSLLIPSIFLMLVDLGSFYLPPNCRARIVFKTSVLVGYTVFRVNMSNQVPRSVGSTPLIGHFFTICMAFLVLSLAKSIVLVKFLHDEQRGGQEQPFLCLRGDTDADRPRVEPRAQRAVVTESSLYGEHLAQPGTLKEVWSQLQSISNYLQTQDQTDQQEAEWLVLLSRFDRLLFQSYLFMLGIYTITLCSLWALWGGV
Procedure: as §1, §2

[3] = biological target: T3, 5-HT3AB receptors (Homo sapiens, UniProt O95264+P46098); assay: as above; format: cell-based; settings: Hill slope, 5-HT3AB receptors in HEK293 cells, mean ± SEM
T3 construct: expressed in transfected cells; host or cells: Xenopus laevis oocytes (cRNA from pGEMHE) or HEK293 cells (pcDNA3.1), A:B ratio 1:3
T3 sequence (P46098 24-478): T1 sequence (P46098 24-478)
T3 sequence (O95264 22-441): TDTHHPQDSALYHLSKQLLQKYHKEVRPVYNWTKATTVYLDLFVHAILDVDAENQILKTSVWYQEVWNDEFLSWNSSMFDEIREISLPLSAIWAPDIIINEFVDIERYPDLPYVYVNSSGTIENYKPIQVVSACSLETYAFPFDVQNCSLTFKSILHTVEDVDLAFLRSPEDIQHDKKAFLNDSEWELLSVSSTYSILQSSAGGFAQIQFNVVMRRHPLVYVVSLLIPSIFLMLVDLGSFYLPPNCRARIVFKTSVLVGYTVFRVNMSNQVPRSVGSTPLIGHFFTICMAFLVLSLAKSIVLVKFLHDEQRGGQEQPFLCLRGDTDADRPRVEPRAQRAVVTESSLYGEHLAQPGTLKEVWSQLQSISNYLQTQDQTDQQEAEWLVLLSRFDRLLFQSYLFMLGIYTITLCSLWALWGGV
Procedure: as §1, §2

[4] = biological target: T4, 5-HT3ABr2 receptors (Homo sapiens, UniProt P46098); assay: as above; format: cell-based; settings: Hill slope, 5-HT3ABr2 receptors in HEK293 cells, mean ± SEM
T4 construct: expressed in transfected cells; host or cells: Xenopus laevis oocytes (cRNA from pGEMHE) or HEK293 cells (pcDNA3.1), A:Br2 ratio 1:3 unless otherwise stated
T4 sequence (P46098 24-478): T1 sequence (P46098 24-478)
Procedure: as §1, §2

[5] = biological target: T1, 5-HT3A receptors; assay: 5-HT-induced macroscopic currents, two-electrode voltage-clamp in Xenopus oocytes; format: cell-based; settings: Hill slope, 5-HT3A receptors in oocytes
Procedure: (§3) Xenopus laevis oocyte-positive females were purchased from NASCO (Fort Atkinson, WI) and maintained according to standard methods. Harvested stage V–VI Xenopus oocytes were washed in four changes of Ca-free ND96 (96 mM NaCl, 2 mM KCl, 1 mM MgCl2, 5 mM HEPES, pH 7.5), defolliculated in 1.5 mg mL^–1 collagenase Type 1A for approximately 2 h, washed again in four changes of ND96, and then stored in ND96 containing 2.5 mM sodium pyruvate, […] gentamycin, and 0.7 mM theophylline.
(§4) cDNA was cloned into pGEMHE for oocyte expression, and pcDNA3.1 (Invitrogen, Paisley, U.K.) for expression in HEK 293 cells. Mutagenesis (Figure 1) was performed using QuikChange (Agilent Technologies Inc., Santa Clara, CA). cRNA was in vitro transcribed from linearized pGEMHE cDNA template using the mMessage mMachine T7 Transcription kit (Ambion, Austin, TX). 5-HT3A was linearized with SphI and 5-HT3B cDNA with NheI. Stage V and VI oocytes were injected with 50 nL of ∼400 ng μL^–1 cRNA, and currents were recorded 1–4 days postinjection. Ratios of 1:3 (5-HT3A:5-HT3B/5-HT3Br1/5-HT3Br2) were used for the expression of heteromeric receptors unless otherwise stated.
(§5) Currents were recorded at a frequency of 5 kHz and filtered at 1 kHz. Microelectrodes were fabricated from borosilicate glass (GC120TF-10, Harvard Apparatus, Edenbridge, Kent, U.K.) using a one stage horizontal pull (P-87, Sutter Instrument Company, Novato, CA) and filled with 3 M KCl. Pipet resistances ranged from 1.0 to 2.0 MΩ. […] Drug application was via a simple gravity fed system calibrated to run at the same rate.

[6] = biological target: T2, 5-HT3ABr1 receptors; assay: as above; format: cell-based; settings: Hill slope, 5-HT3ABr1 receptors in oocytes
Procedure: as §3, §4, §5

[7] = biological target: T3, 5-HT3AB receptors; assay: as above; format: cell-based; settings: Hill slope, 5-HT3AB receptors in oocytes
Procedure: as §3, §4, §5

[8] = system: 5-HT3 receptors (5-HT3A, 5-HT3AB, 5-HT3ABr1, 5-HT3ABr2); assay: Competition binding against [3H]granisetron at different 5-HT3 receptors expressed in HEK293 cells
Procedure: Transfected HEK 293 cells were scraped into 1 mL of ice-cold HEPES buffer (10 mM, pH 7.4) and frozen. […] For competition binding (8 point), reactions were incubated for at least 1 h at 4 °C. Reactions were terminated by vacuum filtration using a Brandel cell harvester onto GF/B filters presoaked in 0.3% polyethylenimine. Radioactivity was determined by scintillation counting using a Beckman BCLS6500 instrument (Fullerton, CA). Individual competition binding experiments were analyzed by iterative curve fitting using Prism.

[9] = biological target: T1, 5-HT3A receptors; settings: cited from earlier work
[10] = biological target: T4, 5-HT3ABr2 receptors; assay: 5-HT-induced macroscopic currents, two-electrode voltage-clamp in Xenopus oocytes; format: cell-based
Procedure: as §3, §4, §5

[11] = competition with 1 nM [3H]granisetron, values shown only in Figure 5

nH, parameters from functional data [1]: 3.6 ± 0.8
nH, parameters from functional data [2]: 1.5 ± 0.3 ^b
nH, parameters from functional data [3]: 1.3 ± 0.2 ^b
nH, parameters from functional data [4]: 2.9 ± 0.4 ^c
nH [5]: 2.6
nH [6]: 1.0
nH [7]: 1.0
SMILES: NCCc1c[nH]c2ccc(O)cc12 [5-HT, 5-hydroxytryptamine]

SMILES: CN1[C@@H]2CC[C@H]1C[C@@H](OC(=O)c1cc(Cl)cc(Cl)c1)C2 [MDL-72222]
Ki, rank order of potency and comparison between receptor subtypes [8, 11]: palonosetron > granisetron > MDL-72222 > mCPBG > d-TC

SMILES: COc1cc2c3cc1Oc1cc(ccc1O)C[C@@H]1c4c(cc(OC)c(O)c4Oc4ccc(cc4)C[C@@H]3N(C)CC2)CC[N+]1(C)C [d-TC, d-tubocurarine]
Ki, rank order of potency and comparison between receptor subtypes [8]: palonosetron > granisetron > MDL-72222 > mCPBG > d-TC

SMILES: NC(N)=NC(N)=Nc1cccc(Cl)c1 [mCPBG]
Ki, rank order of potency and comparison between receptor subtypes [8, 11]: palonosetron > granisetron > MDL-72222 > mCPBG > d-TC

SMILES: O=C1c2cccc3c2[C@H](CCC3)CN1[C@@H]1CN2CCC1CC2 [palonosetron]
Ki, rank order of potency and comparison between receptor subtypes [8, 11]: palonosetron > granisetron > MDL-72222 > mCPBG > d-TC

SMILES: C=C(C)[C@@H]1[C@H]2OC(=O)[C@@H]1[C@]1(O)C[C@H]3O[C@]34C(=O)O[C@H]2[C@]14C [picrotoxinin]
IC50 [9]: 11 µM
IC50 [10]: 17 µM
